This note sets out measurements from patent publication US7923465B2, “Cannabinoid receptor ligands, pharmaceutical compositions containing them, and process for their preparation” (priority 2005, dated 2011).

The target of one series is hCB2 (Homo sapiens, UniProt P34972). The experiment in a line: In vitro binding assay using hCB2-CHO membranes, [3H]-CP-55,940 displacement (Protocol IV). More on the design: expressed in transfected cells; host or cells: CHO (hCB2-CHO, generated in-house). The following applies: for inhibition at 0.3 µM: 1 h, read-out: % Displacement Protocol IV. How it is done:
IV. Protocol for In Vitro Assay Using hCB2-CHO Membranes:
In this assay, [^3H]-CP-55,940 was used as the radioligand to bind human CB2 receptor expressed on the membranes from CHO cells (hCB2-CHO cell line was generated in-house) which can be displaced by unlabeled ligands having affinity to the CB2 receptor.
The assay was performed according to the modified method of Ross et al., 1999 (Br. J. Pharmacol. 128, 735-743). The reaction was set up in a total volume of 200 μl in PEI (0.2%) precoated Millipore GFB filter plates. 1 mM stocks of test compounds were prepared in DMSO and tested at a final concentration of 300 nM. The non-specific binding was determined by 0.5 μM CP-55, 940. The total reaction mixture contained Tris-BSA buffer (50 mM Tris, 5 mM MgCl2, 1 mM EDTA, pH 7.4 with 0.1% BSA), unlabelled CP-55, 940 (0.5 μM) or test samples, [^3H]-CP-55, 940 (0.75 nM) and 25-50 μg of human CB2 receptor preparation. The assay mixture (with or without the test compound) was incubated at 30° C. for 1 hour. The reaction was stopped by rapid filtration under vacuum and the radioactivity on the filters was measured by liquid scintillation counting.
The percent (%) displacement by a test ligand was calculated by comparing the specific bound values.

Setting [1] is: hCB2-CHO membranes, [3H]-CP-55,940 displacement.

Where two headings read alike, the source gives them in different places.

Sequence of hCB2 (P34972 whole entry): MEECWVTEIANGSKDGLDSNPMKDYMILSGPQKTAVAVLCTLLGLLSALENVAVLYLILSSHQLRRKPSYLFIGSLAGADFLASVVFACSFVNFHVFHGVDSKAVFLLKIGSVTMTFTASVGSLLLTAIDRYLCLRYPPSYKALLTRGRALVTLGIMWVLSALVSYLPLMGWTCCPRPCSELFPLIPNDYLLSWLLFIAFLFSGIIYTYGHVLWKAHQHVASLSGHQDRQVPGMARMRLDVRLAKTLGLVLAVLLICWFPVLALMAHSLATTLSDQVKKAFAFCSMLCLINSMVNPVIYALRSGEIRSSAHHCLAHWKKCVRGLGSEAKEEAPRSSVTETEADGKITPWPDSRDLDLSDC

`O=C(NCc1c(F)cccc1F)c1nn(-c2ccc(Cl)cc2Cl)c2c1C1CCC2C1` (centres unmarked) [Example 248, N(3)-(2,6-Difluorobenzyl)-1-(2,4-dichlorophenyl)-4,5,6,7-tetrahydro-1H-4,7-methano-indazole-3-carboxamide] displayed a melting point of 130 to 133 °C.
Take `O=C(NC12CC3CC(CC(C3)C1)C2)c1nn(-c2ccc(F)cc2F)c2c1C1CCC2C1` (centres unmarked) [Example 334, N(3)-(Adamantan-1yl)-1-(2,4-difluorophenyl)-4,5,6,7-tetrahydro-1H-4,7-methano-indazole-3-carboxamide]: at hCB2, the inhibition at 0.3 µM came out at 100%.
`CC(C)(C)NC(=O)c1nn(-c2ccc(F)cc2F)c2c1[C@H]1CC[C@]2(C)C1(C)C` [Example 411, (4S,7R)—N(3)-tert-Butyl-1-(2,4-difluorophenyl)-7,8,8-trimethyl-4,5,6,7-tetrahydro-1H-methano-indazole-3-carboxamide]: the “% Displacement Protocol IV” value at hCB2 (setting [1]) came to 49.68%.
As to `CCCCCn1nc2c(c1C(=O)NC(C)(C)c1ccccc1)C1CC3CC(CC2C3)C1` [Example 190a, N(7)-(1-Methyl-1-phenylethyl)-6-pentyl-5,6-diazatetracyclo[7.3.1.1^3,11.0^4,8]tetradeca-4,7-diene-7-carboxamide], the inhibition at 0.3 µM on hCB2 is 0%.
Take `CC(C)(C)NC(=O)c1n[nH]c2c1C1(c3ccc(Cl)c(Cl)c3)CCC2C1` (centres unmarked) [Example 325, N(3)-(tert-Butyl)-4-(3,4-dichlorophenyl)-4,5,6,7-tetrahydro-1H-4,7-methano-indazole-3-carboxamide]: at hCB2 (setting [1]), the inhibition at 0.3 µM turned out to be 99.6%.
For the compound `CC(C)(C)NC(=O)c1nn(-c2ccc(F)cc2F)c2c1C1CCC2c2ccccc21` (centres unmarked) [Example 702, N(12)-tert-Butyl-10-(2,4-difluorophenyl)-10,11-diazatetracyclo[6.5.2.0^2,7.0^9,13]tetradeca-2,4,6,9(13),11-pentaene-12-carboxamide], the “% Displacement Protocol IV” value on hCB2 (setting [1]) was 33.00%.
In the case of `CC(NC(=O)c1nn(-c2ccc(Cl)cc2)c2c1C1CC3CC(C1)CC2C3)c1ccccc1Cl` (centres unmarked) [Example 138, N7-[1-(2-Chlorophenyl)ethyl]-5-(4-chlorophenyl)-5,6-diazatetracyclo[7.3.1.1^3,11.0^4,8]tetradeca-4(8),6-diene-7-carboxamide], the inhibition at 0.3 µM on hCB2 (setting [1]) came out at 68%.
As to `O=C(NNc1ccccc1F)c1nn(-c2ccc(Br)cc2)c2c1C1CCC2C1` (centres unmarked) [Example 278, N(3)-[(2-Fluorophenyl)amino]-1-(4-bromophenyl)-4,5,6,7-tetrahydro-1H-4,7-methano-indazole-3-carboxamide], the melting point was determined as 123 °C.
In the case of `CC(C)(C)NC(=O)c1nn(-c2ccc(Cl)cc2)c2c1C1CCC2C1` (centres unmarked) [Example 321, N(3)-(tert-Butyl)-1-(4-chlorophenyl)-4,5,6,7-tetrahydro-1H-4,7-methano-indazole-3-carboxamide], the inhibition at 0.3 µM at hCB2 (setting [1]) worked out at 92.9%.
Still for that read-out and setting: as for `O=C(N[C@H](CO)c1ccc(F)cc1)c1nn(-c2ccc(F)cc2F)c2c1C1CCC2C1` (stereo partly drawn) [Example 332, N(3)-[(1S)-2-Hydroxy-1-(4-fluorophenyl)ethyl]-1-(2,4-difluorophenyl)-4,5,6,7-tetrahydro-1H-4,7-methano-indazole-3-carboxamide], the figure is 70.1%.
As for `CCOc1cc(F)ccc1-n1nc(C(=O)NC(C)(C)C)c2c1C1CCC2C1` (centres unmarked) [Example 329, N(3)-(tert-Butyl)-1-(2-ethoxy,4-fluorophenyl)-4,5,6,7-tetrahydro-1H-4,7-methano-indazole-3-carboxamide], on hCB2 (setting [1]), the inhibition at 0.3 µM amounted to 88.5%.
With `CC12CCC(c3c(C(=O)Nc4ccccc4)nn(-c4ccc(Cl)cc4Cl)c31)C2(C)C` (centres unmarked) [Example 401, N(3)-Phenyl-1-(2,4-dichlorophenyl)-7,8,8-trim ethyl-4,5,6,7-tetrahydro-1H-4,7-methano-indazole-3-carboxamide], the melting point lay in the range of 112 to 115 °C.
For `CC(NC(=O)c1nn(-c2ccc(F)cc2F)c2c1C1CC3CC(C1)CC2C3)c1ccccc1Cl` (centres unmarked) [Example 151, N(7)-[1-(2-Chlorophenyl)ethyl]-5-(2,4-difluorophenyl)-5,6-diazatetracyclo[7.3.1.1^3,11.0^4,8]tetradeca-4(8),6-diene-7-carboxamide], on hCB2 (setting [1]), the inhibition at 0.3 µM came out at 69.2%.
As for `O=C(NCc1ccco1)c1nn(-c2ccc(F)cc2F)c2c1C1CCC2C1` (centres unmarked) [Example 330, N(3)-(2-furylmethyl)-1-(2,4-difluorophenyl)-4,5,6,7-tetrahydro-1H-4,7-methano-indazole-3-carboxamide], at hCB2 (setting [1]), the inhibition at 0.3 µM was 64.9%.
Take `Cc1ccc(CN2NC3=C(C4CCC3C4)C2C(=O)NC(C)(C)C)cc1` (centres unmarked) [Example 336b, N(3)-(tert-butyl)-2-(4-methylbenzyl)-4,5,6,7-tetrahydro-1H-4,7-methano-indazole-3-carboxamide]: the inhibition at 0.3 µM at hCB2 (setting [1]) amounted to 26.5%.
With `CC(C)(C)NC(=O)C1C2=C(NN1Cc1ccc(F)cc1)C1CCC2C1` (centres unmarked) [Example 335b, N(3)-(tert-butyl)-2-(4-fluorobenzyl)-4,5,6,7-tetrahydro-1H-4,7-methano-indazole-3-carboxamide], the inhibition at 0.3 µM at hCB2 (setting [1]) stood at 8.7%.
As to `COC(=O)[C@H](CC(C)C)NC(=O)c1nn(-c2ccc(F)cc2F)c2c1C1CCC2C1` (stereo partly drawn) [Example 333, Methyl-(2S)-2-[5-(2,4-difluorophenyl)-4,5-diazatricyclo[5.2.1.0.^2,6]deca-2(6),3-dien-3-ylcarboxamido]-4-methylpentanoate], at hCB2 (setting [1]), the “% Displacement Protocol IV” value is reported as 100.00%.
Turning to `CC(C)(C)NC(=O)c1nn(Cc2ccc(F)cc2)c2c1C1CCC2C1` (centres unmarked) [Example 335a, N(3)-(tert-butyl)-1-(4-fluorobenzyl)-4,5,6,7-tetrahydro-1H-4,7-methano-indazole-3-carboxamide], the inhibition at 0.3 µM on hCB2 was 96.5%.
Take `O=C(Nc1ccc(O)cc1)c1nn(-c2ccc(F)cc2F)c2c1C1CCC2C1` (centres unmarked) [Example 328, N(3)-(4-Hydroxyphenyl)-1-(2,4-difluorophenyl)-4,5,6,7-tetrahydro-1H-4,7-methano-indazole-3-carboxamide]: the inhibition at 0.3 µM at hCB2 (setting [1]) came out at 64.4%.
Turning to `CC12CCC(c3c(C(=O)N[C@@H](CO)c4ccccc4)nn(-c4ccc(F)cc4F)c31)C2(C)C` (some centres unmarked) [Example 410], the “% Displacement Protocol IV” value at hCB2 (setting [1]) is listed as 15.5%.
Consider `CC(C)(NC(=O)c1nn(-c2ccc(Cl)cc2Cl)c2c1C1CCC2c2ccccc21)c1ccccc1` (centres unmarked) [Example 508, N12-(1-Methyl-1-phenylethyl)-10-(2,4-dichlorophenyl)-10,11-diazatetracyclo[6.5.2.0^2,7.0^9,13]pentadeca-2,4,6,9(13),11-pentaene-12-carboxamide], for which the inhibition at 0.3 µM at hCB2 (setting [1]) came out at 67.7%.
As to `O=C(NCc1ccccc1Cl)c1nn(-c2ccc(F)cc2F)c2c1C1CCC2C1` (centres unmarked) [Example 297, N5-(2-Chlorobenzyl)-3-(2,4-difluorophenyl)-3,4-diazatricyclo[5.2.1.0^2,6]deca-2(6),4-diene-5-carboxamide], the inhibition at 0.3 µM on hCB2 (setting [1]) was 70.3%.
Consider `CC(C)(C)NC(=O)c1nn(-c2ccc(Cl)cc2Cl)c2c1C1CCC2C1` (centres unmarked) [Example 327, N(3)-(tert-Butyl)-1-(2,4-dichlorophenyl)-4,5,6,7-tetrahydro-1H-4,7-methano-indazole-3-carboxamide], for which, at hCB2 (setting [1]), the inhibition at 0.3 µM worked out at 100%.
The same measure, in the same setting: as for `O=C(NCc1ccccc1Cl)c1nn(-c2ccc(Cl)cn2)c2c1C1CC3CC(C1)CC2C3` [Example 185, N7-(2-Chlorobenzyl)-5-(5-chloro-2-pyridyl)-5,6-diazatetracyclo[7.3.1.1^3,11.0^4,8]tetradeca-4(8),6-diene-7-carboxamide], the figure is 60.7%.
Turning to `O=C(NCc1c(F)cccc1F)c1nn(-c2ccc(Cl)cc2)c2c1C1CC3CC(C1)CC2C3` [Example 115, N(7)-(2,6-Difluorobenzyl)-5-(4-chlorophenyl)-5,6-diazatetracyclo[7.3.1.1^3,11.0^4,8]tetradeca-4(8),6-diene-7-carboxamide], the melting point was in the range of 166 to 167 °C.
For the compound `CC12CCC(C1)C(C)(C)C2NC(=O)c1nn(-c2ccc(Cl)cc2Cl)c2c1C1CCC2c2ccccc21` (centres unmarked) [Example 507, N12-(1,3,3-Trimethylbicyclo[2.2.1]hept-2-yl)-10-(2,4-dichlorophenyl)-10,11-diazatetracyclo[6.5.2.0^2,7.0^9,13]pentadeca-2(7),3,5,9(13),11-pentaene-12-carboxamide], the inhibition at 0.3 µM at hCB2 (setting [1]) stood at 91.7%.
As to `O=C(NCc1cccs1)c1nn(-c2ccc(F)cc2F)c2c1C1CCC2C1` (centres unmarked) [Example 331, N(3)-(2-thiophenemethyl)-1-(2,4-difluorophenyl)-4,5,6,7-tetrahydro-1H-4,7-methano-indazole-3-carboxamide], the “% Displacement Protocol IV” value on hCB2 (setting [1]) is on record as 75.26%.
In the case of `CN1CCN(NC(=O)c2nn(-c3ccc(F)cc3F)c3c2C2CCC3C2)CC1` (centres unmarked) [Example 318, N(3)-(4-methylpiperazino)-1-(2,4-difluorophenyl)-4,5,6,7-tetrahydro-1H-4,7-methano-indazole-3-carboxamide], on hCB2 (setting [1]), the inhibition at 0.3 µM came out at 31%.
Take `CC(C)(C)NC(=O)c1nn(-c2ccc(Br)cc2)c2c1C1CCC2C1` (centres unmarked) [Example 324, N(3)-(tert-Butyl)-1-(4-bromophenyl)-4,5,6,7-tetrahydro-1H-4,7-methano-indazole-3-carboxamide]: the inhibition at 0.3 µM at hCB2 was determined as 88.5%.
